Patent publication US10787640B2, “Producing mesodermal cell types and methods of using the same” (The Board of Trustees of the Leland Stanford Junior …, priority 2015, dated 2020)

Legend:
Assay type in all cases: cell-based, human
[1] = test system: paraxial mesoderm; assay: Paraxial mesoderm induction, marker expression; conditions: during induction of paraxial mesoderm
Method: All differentiation was conducted in serum-free CDM2 basal medium in monolayer feeder-free conditions. hPSCs were sparsely passaged ˜1:15-1:20 as fine clumps (using Accutase) onto Geltrex (Gibco)-coated cell culture wells and cultured overnight in mTeSR1+1 μM thiazovivin. The following morning, hPSCs were differentiated towards anterior PS (30 ng/mL Activin+4 μM CHIR+20 ng/mL FGF2+100 nM PIK90; for subsequent paraxial differentiation) or mid PS (30 ng/mL Activin+40 ng/mL BMP4+6 μM CHIR+20 ng/mL FGF2+[…] differentiation) for 24 hrs. D1 anterior PS→D2 paraxial mesoderm (1 μM A8301+3 μM CHIR+250 nM LDN193189+20 ng/mL FGF2) for 24 hrs. D1 mid PS→D2 lateral mesoderm (1 μM A8301+30 ng/mL BMP4+1 μM C59) for 24 hrs.
(§1) Subsequently, day 1 anterior primitive streak was briefly washed (DMEM/F12) and differentiated towards day 2 paraxial mesoderm for 24 hours (1 μM A-83-01+3 μM CHIR99021+250 nM LDN-193189+20 ng/mL FGF2). Separately, day 1 mid primitive streak was differentiated towards day 2 lateral mesoderm for 24 hours (1 μM A-83-01+30 ng/mL BMP4+1 μM C59; with 2 μM SB-505124 sometimes used instead of A-83-01).

[2] = test system: hESC-derived lateral mesoderm; assay: Lateral mesoderm patterning, qPCR
Method: as §1
C) To reveal the possible identity of non-cardiac mesoderm lineages that were contaminating cardiac mesoderm-containing cultures, NKX2.5-GFP hESCs were differentiated towards mid primitive streak (day 1) and were differentiated towards a heterogeneous population containing cardiac mesoderm (day 3) by treatment with SB-505124+BMP4+C59 (without FGF2) on days 2-3 of differentiation. FACS was performed on day 3 to purify either NKX2.5-GFP^+ or NKX2.5-GFP^− cells (top subpanels) which were sorted for qPCR (bottom subpanels). Gene expression was normalized to expression of a gene in the NKX2.5-GFP^+ fraction (dotted line). D) Timecourse of gene expression in hESCs differentiating towards mid primitive streak and lateral mesoderm, with treatment by SB-505124+BMP4+C59 on days 2-3 of differentiation. […] G) To assess whether a stabilized vitamin C analog (ascorbic acid-2-phosphate) (AA2P) enhanced cardiac mesoderm differentiation into cardiomyocytes, day 4 hESC-derived cardiac mesoderm was exposed to BMP4 (30 ng/mL)+XAV939 (1 μM) for 48 hours in the presence or absence of 200 μg/mL AA2P and qPCR was conducted of day 6 populations; qPCR data were normalized such that expression values in the highest-expressing sample was normalized=1.0. […] J) In the mouse embryo, endocardium (progenitors to heart-affiliated endothelium) are marked by transient coexpression of pan-heart marker Nkx2.5 together with endothelial markers (Ferdous et al., 2009; Stanley et al., 2002).

[3] = test system: lateral mesoderm; assay: Forelimb versus hindlimb progenitor specification from lateral mesoderm; conditions: day 2-3, in the context of BMP and WNT activation
Method: Undifferentiated hPSCs (wild-type H7 as well as TBX5-Venus V19-2 H9 hESCs) were maintained in mTeSR1 media on Geltrex-coated plates. As described, they were differentiated into mid primitive streak for 24 hours (D0-1; 30 ng/mL Activin+40 ng/mL BMP4+6 μM CHIR99021+20 ng/mL FGF2+100 nM PIK90) and subsequently differentiated into lateral mesoderm (D1-2; 1 μM A-83-01+30 ng/mL BMP4+1 μM C59), with the inclusion of 50 nM of TTNPB or 2 μM ATRA on D1-2 for trunk lateral mesoderm that was subsequently competent for forelimb differentiation.
Day 2 trunk lateral mesoderm was differentiated into day 3 forelimb progenitors (D2-3; 1 μM A-83-01+1 μM DMH1+3 μM CHIR99021). By contrast, day 2 non-trunk lateral mesoderm was differentiated into day 3 hindlimb progenitors (D2-3; 25 ng/mL Activin+1 μM DMH1+3 μM CHIR99021).

[4] = test system: day 6 sclerotome; assay: Sclerotome differentiation towards cartilage
Method: Day 6 sclerotome was briefly washed (DMEM/F12) and treated with BMP4 (20 ng/mL) for 72-144 hours, leading to day 9 or day 12 cartilage-like progeny. Media was changed every 24 hours.
hPSC-derived cartilage progeny were stained with safranin-O to assess their production of acidic proteoglycans, which is a key trademark of cartilage phenotypic function. Safranin-O staining was conducted in accord with standard procedures. Namely, hPSC-derived cartilage progeny at day 12 of differentiation (day 6 sclerotome treated with chondrogenic BMP4 for 6 further days) were fixed (with 4% formaldehyde, for 10 minutes at room temperature), washed twice in PBS, briefly treated with 1M acetic acid for 15 seconds, stained with 1% safranin-O solution for 10 minutes, washed with PBS, and wide-field visualization was performed with a dissecting microscope (Leica M205 FA).
FIG. 11: A) To determine the length of time required for sclerotome differentiation, a qPCR timecourse was performed, encompassing undifferentiated hESCs (D0), day 2 hESC-derived paraxial mesoderm (D2 PXM), day 3 hESC-derived early somite progenitors, and hESC-derived day 3 early somite progenitors that were exposed to sclerotome inductive conditions (5 nM 21K+1 μM C59) for 24 or 48 hours. B) Description of EF1α-BCL2-T2A-GFP lentiviral construct (otherwise known as “C306”; top) and FACS plot of a stably-transduced polyclonal H9 hESC line with near-uniform expression of the BCL2-T2A-GFP transgene (green contour) by comparison to uncolored wild-type hESCs (bottom) (see above methods for details of derivation of the H9 BCL2-T2A-GFP hESC line). C) Higher-magnification picture of BCL2-T2A-GFP hESC-derived sclerotome ectopic bone grafts (originally described above in FIG. 4, panel E), showing that despite the near-ubiquitous expression of GFP throughout the ectopic bone graft (indicating its human provenance), the blood vessels are clearly GFP-negative and therefore presumably derived from the mouse host; scale bar=1 mm. […]

## Cc1cnc(-c2cnc(NCCNc3ccc(C#N)cn3)nc2-c2ccc(Cl)cc2Cl)[nH]1 [CHIR99021, 6-[[2-[[4-(2,4-Dichlorophenyl)-5-(5-methyl-1H-imidazol-2-yl)-2-pyrimidinyl]amino]ethyl]amino]-3-pyridinecarbonitrile]
[1]; at 4 μM
  marker expression: undesired decrease in marker expression
[1]
  critical concentration: less than 4 μM
[2]; day 2 lateral mesoderm, SB-505124+BMP4 with CHIR99021 or C59, 24 hours
  lateral mesoderm fate (qPCR): specified a posterior lateral mesoderm/forelimb bud fate (PRRX1)
[2]; last 12 hrs C59 or 3 μM CHIR in addition to BS
  pan-lateral mesoderm marker FOXF1 expression: not markedly changed

B1: Activin: TGFβ agonist (protein, UniProt P08476 311-426, looked up)
Inhibin beta A chain: GLECDGKVNICCKKQFFVSFKDIGWNDWIIAPSGYHANYCEGECPSHIAGTSGSSLSFHSTVINHYRMRGHSPFANLKSCCVPTKLRPMSMLYYDDGQNIIKKDIQNMIVEECGCS
modifications: Inhibin beta A chain
notes: TGFβ agonist
[3]
  hindlimb transcription factors TBX4 and PITX1 expression: strongly induced the hindlimb transcription factors TBX4 and PITX1

B2: BMP4: BMP family ligand, BMP agonist (protein, UniProt P12644 293-408, looked up)
Bone morphogenetic protein 4: SPKHHSQRARKKNKNCRRHSLYVDFSDVGWNDWIVAPPGYQAFYCHGDCPFPLADHLNSTNHAIVQTLVNSVNSSIPKACCVPTELSAISMLYLDEYDKVVLKNYQEMVVEGCGCR
[4]; BMP4 20 ng/mL
  EPIPHYCAN and AGGRECAN expression (timecourse qPCR): only upregulated after prolonged BMP treatment
  SOX9 expression (timecourse qPCR): rapidly downregulated
[4]; BMP4 for 3 further days, day 9
  cartilage fate (COL2A1, AGGRECAN, EPIPHYCAN, COMP): differentiated towards a cartilage fate
